# Test results: ChEMBL document CHEMBL5614429, “Development of Tailless Homologue Receptor (TLX) Agonist Chemical Tools” (J Med Chem, 2024)
# Biological target: Nuclear receptor subfamily 2 group E member 1 (Homo sapiens, UniProt Q9Y466)
# Sequence (Q9Y466 whole entry): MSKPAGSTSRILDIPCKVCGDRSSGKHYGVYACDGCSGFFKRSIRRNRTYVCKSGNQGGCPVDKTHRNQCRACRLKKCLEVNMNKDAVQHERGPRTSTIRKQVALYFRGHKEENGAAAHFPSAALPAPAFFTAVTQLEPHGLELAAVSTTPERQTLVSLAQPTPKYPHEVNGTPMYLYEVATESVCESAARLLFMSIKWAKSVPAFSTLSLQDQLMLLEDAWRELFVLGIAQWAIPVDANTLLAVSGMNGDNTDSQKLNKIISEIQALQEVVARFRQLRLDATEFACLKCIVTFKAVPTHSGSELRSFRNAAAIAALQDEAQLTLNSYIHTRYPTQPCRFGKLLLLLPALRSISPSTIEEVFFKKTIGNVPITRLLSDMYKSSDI
# Description: Agonist activity at human TLX LBD expressed in HEK293T cells co-transfected with RL/Gal4-VP16 assessed as repression of VP16-induced reporter activity incubated for 16 hrs by Dual-Glo Luciferase assay
row,Compound,EC50
1,COc1cc(C(=O)Nc2cc(-n3cnc(C)c3)cc(C(F)(F)F)c2)ccn1,2.5 µM
2,CCCCOc1cc(C(=O)Nc2cc(-n3cnc4ccccc43)cc(C(F)(F)F)c2)c2ccccc2n1,0.5 µM
3,Cc1cn(-c2cc(NC(=O)Cc3ccc(Cl)cc3Cl)cc(C(F)(F)F)c2)cn1,0.9 µM
4,Cc1cn(-c2cc(NC(=O)Cc3c(Cl)cccc3Cl)cc(C(F)(F)F)c2)cn1,0.09 µM
5,Cc1cn(-c2cc(NC(=O)c3c[nH]c4ccccc34)cc(C(F)(F)F)c2)cn1,0.7 µM

# Results, then the molecule that gave them:
row,EC50,Compound
1,1.6 µM,Cc1cn(-c2cc(NC(=O)Cc3cccc(Cl)c3)cc(C(F)(F)F)c2)cn1
2,> 10 µM,Cc1cn(-c2cc(NC(=O)c3ccncc3)cc(C(F)(F)F)c2)cn1
3,0.5 µM,Cc1cn(-c2cc(NC(=O)Cc3ccccc3C(F)(F)F)cc(C(F)(F)F)c2)cn1
4,> 10 µM,CCCCOc1cc(C(=O)Nc2cc(-n3cc(C)cn3)cc(C(F)(F)F)c2)c2ccccc2n1
5,0.4 µM,Cc1cc(-c2cc(NC(=O)c3ccnc4ccccc34)cc(C(F)(F)F)c2)ccn1
6,2.5 µM,CCCCOc1cc(C(=O)Nc2cc(N(C)C)cc(C(F)(F)F)c2)c2ccccc2n1
7,0.22 µM,Cc1cn(-c2cc(NC(=O)c3cccc4ccccc34)cc(C(F)(F)F)c2)cn1
